Reference: patent EP2910557A1, “Enantiopure tetrasubstituted pyrrolidines as scaffolds for proteasome inhibitors and medicinal applications thereof” (Ikerchem, S.L., priority 2014, dated 2015)

How the values were obtained:
Assay in all cases: Cancer cell growth inhibition, 72 h treatment
Assay type in all cases: cell-based
143b = settings: Homo sapiens, Osteosarcoma 143b, Alamar Blue
Experimental: (§1) Cell culture-based assays were used to evaluate the ability of compounds of the invention to inhibit cancer cell growth.
(§2) Cells were obtained from the American Type Culture Collection (ATCC) and the European Collection of Cell Cultures. Cells were thawed in their appropriate media plus supplements (see table below). Cells were passaged at confluence by washing once in HBSS cation-free followed by a 3 minutes incubation with trypsin ([0.5 µg/ml]/EDTA [0.2 µg/ml]) (Gibco-BRL, 15400054) solution in HBSS at 37°C (except non-adherent cell lines - hematologic), and transferred to their appropriate media plus supplements. Prior to seeding at defined cell concentration, cells were recovered in medium, centrifuged, taken up in medium and counted.
(§3) All treatments were performed in triplicate. Experiments were carried out in 96-well cell culture plates (Cultek) and the cell lines seeded at the density mentioned in the table above and cultured at 37°C with 5% CO2. After 24h, media were supplemented by 100 µl/well of diluted test compound at variable final concentrations and incubated for 72 hours. Then, AlamarBlue® Reagent (Biosource DAL1100) was added to each well and incubated at 37°C for 4 hours. Relative fluorescent intensity that correlates with the number of living cells was read in a Cytofluor plate reader (Millipore) at 535/590 nm (Excitation/emission). After reading the AlamarBlue® signal, the hexosaminidase activitity was measured according to the following protocol: medium was removed and cells were washed once with PBS. 60 µl of substrate solution (p-nitrophenol-N-acetyl-beta-D-glucosaminide 7.5 mM [Sigma N-9376], sodium citrate 0.1 M, pH 5.0, 0.25% Triton X-1 00) was added to each well and incubated at 37°C for 1-2 hours; after this incubation time, a bright yellow colour appears; then, plates could be developed by adding 90 µl of developer solution (Glycine 50 mM, pH 10.4; EDTA 5 mM), and absorbance was recorded at 405 nm.
(§4) Note: In all cases assays were performed in Alamar Blue with the exception of those indicated (* = Hexosaminidase assay)

A431 = settings: Homo sapiens
Experimental: as §1, §2, §3, §4

A549 = settings: Homo sapiens
Experimental: as §1, §2, §3, §4

BxPC-3 = settings: Homo sapiens
Experimental: as §1, §2, §3, §4

CCRF-CEM = settings: Homo sapiens, Hematologic CCRF-CEM, Alamar Blue
Experimental: as §1, §2, §3, §4

COLO 205 = settings: Homo sapiens
Experimental: as §1, §2, §3, §4

DU-145 = settings: Homo sapiens, Prostate cancer DU-145, Alamar Blue
Experimental: as §1, §2, §3, §4

Daoy = settings: Homo sapiens, Brain Daoy, Alamar Blue
Experimental: as §1, §2, §3, §4

HT-1080 = settings: Homo sapiens
Experimental: as §1, §2, §3, §4

HT-29 = settings: Homo sapiens, Colon cancer HT-29, Alamar Blue
Experimental: as §1, §2, §3, §4

HepG2 = settings: Homo sapiens, Liver cancer HepG2, Alamar Blue
Experimental: as §1, §2, §3, §4

Jurkat = settings: Homo sapiens, Hematologic Jurkat, Alamar Blue
Experimental: as §1, §2, §3, §4

K562 = settings: Homo sapiens, Hematologic K562, Alamar Blue
Experimental: as §1, §2, §3, §4

LNCaP = settings: Homo sapiens, Prostate cancer LNCaP, Alamar Blue
Experimental: as §1, §2, §3, §4

LS174T = settings: Homo sapiens, Colon cancer LS174T, Alamar Blue
Experimental: as §1, §2, §3, §4

LoVo = settings: Homo sapiens, Colon cancer LoVo, Alamar Blue
Experimental: as §1, §2, §3, §4

MCF-7 = settings: Homo sapiens, MCF7, Breast cancer MCF-7, Alamar Blue
Experimental: as §1, §2, §3, §4

MDA-MB-435 = settings: Homo sapiens, Melanoma MDA-MB-435, Alamar Blue
Experimental: as §1, §2, §3, §4

MIA PaCa-2 = settings: Homo sapiens
Experimental: as §1, §2, §3, §4

NCI-H1650 = settings: Homo sapiens
Experimental: as §1, §2, §3, §4

NCI-H1975 = settings: Homo sapiens
Experimental: as §1, §2, §3, §4

RAMOS = settings: Homo sapiens, Hematologic RAMOS, Alamar Blue
Experimental: as §1, §2, §3, §4

RCC 786-O = settings: Homo sapiens, 786-0, Renal RCC 786-O, Alamar Blue
Experimental: as §1, §2, §3, §4

RPMI-8226 = settings: Homo sapiens, Multiple mieloma RPMI-8226, Alamar Blue
Experimental: as §1, §2, §3, §4

SK-HEP-1 = settings: Homo sapiens, SK-HEP1, Liver cancer SK-HEP-1, Alamar Blue
Experimental: as §1, §2, §3, §4

SK-Mel-28 = settings: Homo sapiens, Melanoma SK-Mel-28, Alamar Blue
Experimental: as §1, §2, §3, §4

SK-OV-3 = settings: Homo sapiens, Ovarian cancer SK-OV-3, Alamar Blue
Experimental: as §1, §2, §3, §4

SW480 = settings: Homo sapiens
Experimental: as §1, §2, §3, §4

T47D = settings: Homo sapiens, Breast cancer T47D
Experimental: as §1, §2, §3, §4

U-373 MG = settings: Homo sapiens, U373 MG, Brain U-373 MG
Experimental: as §1, §2, §3, §4

NCI-H358 = settings: Homo sapiens, Lung cancer NCI-H358, Alamar Blue
Experimental: as §1, §2, §3, §4

[1] = A-431, Epidermoid A431, Alamar Blue
[2] = Pancreatic cancer BxPC-3, Alamar Blue
[3] = Colon cancer COLO 205, Alamar Blue
[4] = Fibrosarcoma HT-1080, Alamar Blue
[5] = Pancreatic cancer MIA PaCa-2, Alamar Blue
[6] = Lung cancer NCI-H1650, Alamar Blue
[7] = Lung cancer NCI-H1975, Alamar Blue
[8] = Colon cancer SW480, Alamar Blue
[9] = Lung cancer A549, Hexosaminidase assay (*)
[10] = Pancreatic cancer BxPC-3, Hexosaminidase assay (*)
[11] = Lung cancer NCI-H1650, Hexosaminidase assay (*)
[12] = Lung cancer NCI-H1975, Hexosaminidase assay (*)
[13] = Colon cancer SW480, Hexosaminidase assay (*)

EC50 (143b) | EC50 (A431; [1]) | EC50 (CCRF-CEM) | EC50 (DU-145) | EC50 (Daoy) | EC50 (HT-29) | EC50 (HepG2) | EC50 (Jurkat) | EC50 (K562) | EC50 (LNCaP) | EC50 (LS174T) | EC50 (LoVo) | EC50 (MCF-7) | EC50 (MDA-MB-435) | EC50 (RAMOS) | EC50 (RCC 786-O) | EC50 (RPMI-8226) | EC50 (SK-HEP-1) | EC50 (SK-Mel-28) | EC50 (SK-OV-3) | Compound | other results
370 nM | 410 nM | 140 nM | 350 nM | 570 nM | 850 nM | 500 nM | 800 nM | 2700 nM | 120 nM | 260 nM | 1700 nM | 1300 nM | 210 nM | 500 nM | 2400 nM | 310 nM | 160 nM | 620 nM | 1400 nM | CC(C)C[C@H](NC(=O)[C@@H]1N[C@H](c2ccc3ccccc3c2)[C@@H]([N+](=O)[O-])[C@@H]1c1ccccc1)B(O)O [Example 12, (R)-3-methyl-1-((2R,3R,4S,5R)-5-(naphthalen-2-yl)-4-nitro-3-phenylpyrrolidine-2-carboxamido)butylboronic acid] | EC50 (A549; Lung cancer A549, Alamar Blue): 5800 nM; EC50 (BxPC-3; [2]): 970 nM; EC50 (COLO 205; [3]): 2400 nM; EC50 (HT-1080; [4]): 460 nM; EC50 (MIA PaCa-2; [5]): 1900 nM; EC50 (NCI-H1650; [6]): 370 nM; EC50 (NCI-H1975; [7]): 780 nM; EC50 (SW480; [8]): 560 nM; EC50 (T47D; Hexosaminidase assay (*)): 7100 nM; EC50 (U-373 MG; Alamar Blue): 11000 nM
1900 nM | 100 nM | 630 nM | 3500 nM | 3700 nM | 27000 nM | 3100 nM | 2000 nM | 15000 nM | 1800 nM | 600 nM | 15000 nM | 1900 nM | 1100 nM | 2400 nM | 12000 nM | 1300 nM | 1900 nM | 13000 nM | 13000 nM | CC(C)C[C@H](NC(=O)[C@@H]1N[C@H](c2ccccc2)[C@@H]([N+](=O)[O-])[C@@H]1c1ccc(F)cc1)B(O)O [Example 6, (R)-1-((2R,3R,4S,5R)-3-(4-fluorophenyl)-4-nitro-5-phenylpyrrolidine-2-carboxamido)-3-methylbutylboronic acid] | EC50 (A549; [9]): 12000 nM; EC50 (BxPC-3; [10]): 5800 nM; EC50 (COLO 205; [3]): 2400 nM; EC50 (HT-1080; Fibrosarcoma HT-1080, Hexosaminidase assay (*)): 16000 nM; EC50 (MIA PaCa-2; [5]): 83000 nM; EC50 (NCI-H1650; [11]): 12000 nM; EC50 (NCI-H1975; [12]): 7300 nM; EC50 (NCI-H358): 3300 nM; EC50 (SW480; [13]): 13000 nM; EC50 (T47D; Hexosaminidase assay (*)): 21000 nM; EC50 (U-373 MG; Hexosaminidase assay (*)): 17000 nM
100 nM | 20 nM | 52 nM | 570 nM | 290 nM | 2500 nM | 220 nM | 40 nM | 1000 nM | 150 nM | 20 nM | 660 nM | 280 nM | 170 nM | 160 nM | 1000 nM | 60 nM | 7 nM | 800 nM | 330 nM | CC(C)C[C@H](NC(=O)[C@@H]1N[C@H](c2ccccc2)[C@@H]([N+](=O)[O-])[C@@H]1c1ccco1)B(O)O [Example 11, (R)-1-((2R,3R,4S,5R)-3-(furan-2-yl)-4-nitro-5-phenylpyrrolidine-2-carboxamido)-3-methylbutylboronic acid] | EC50 (A549; [9]): 1300 nM; EC50 (BxPC-3; [10]): 700 nM; EC50 (COLO 205; [3]): 202 nM; EC50 (HT-1080; [4]): 890 nM; EC50 (MIA PaCa-2; Pancreatic cancer MIA PaCa-2, Hexosaminidase assay (*)): 850 nM; EC50 (NCI-H1650; [11]): 1200 nM; EC50 (NCI-H1975; [12]): 840 nM; EC50 (NCI-H358): 280 nM; EC50 (SW480; [13]): 1100 nM; EC50 (T47D; Alamar Blue): 1300 nM; EC50 (U-373 MG; Hexosaminidase assay (*)): 1100 nM
980 nM | 10000 nM | 4500 nM | 58000 nM | 41000 nM | 12300 nM | 8100 nM | 4700 nM | 19000 nM | 4200 nM | 5900 nM | 15000 nM | 30000 nM | 5300 nM | 8700 nM | 19000 nM | 4800 nM | 4200 nM | 10000 nM | 16000 nM | CC(C)C[C@H](NC(=O)[C@@H]1CCCN1)B(O)O [MG-319, {(R)-3-methyl-1-[(S)-pyrrolidine-2-carboxamido]butyl}boronic acid, reference compound] | EC50 (BxPC-3; [2]): 33000 nM; EC50 (COLO 205; Colon cancer COLO 205, Hexosaminidase assay (*)): 1900 nM; EC50 (HT-1080; [4]): 8900 nM; EC50 (MIA PaCa-2; [5]): 22000 nM; EC50 (NCI-H1650; [6]): 14000 nM; EC50 (NCI-H1975; [7]): 47000 nM; EC50 (NCI-H358): 24000 nM; EC50 (SW480; [8]): 8800 nM; EC50 (T47D; Alamar Blue): 25000 nM; EC50 (U-373 MG; Alamar Blue): 92000 nM
290 nM | – | 170 nM | 910 nM | 780 nM | 3500 nM | 560 nM | 80 nM | 1200 nM | 380 nM | 140 nM | 2500 nM | 490 nM | 310 nM | 530 nM | 430 nM | 60 nM | 490 nM | 1600 nM | 1300 nM | CC(C)C[C@H](NC(=O)[C@@H]1N[C@H](c2ccccc2)[C@@H]([N+](=O)[O-])[C@@H]1c1cccs1)B(O)O [Example 10, (R)-3-methyl-1-((2R,3R,4S,5R)-4-nitro-5-phenyl-3-(thiophen-2-yl)pyrrolidine-2-carboxamido)butylboronic acid] | EC50 (A431; A-431, Epidermoid A431, Hexosaminidase assay (*)): 30 nM; EC50 (A549; [9]): 2600 nM; EC50 (BxPC-3; [10]): 1500 nM; EC50 (COLO 205; [3]): 310 nM; EC50 (HT-1080; [4]): 1400 nM; EC50 (MIA PaCa-2; [5]): 2400 nM; EC50 (NCI-H1650; [11]): 1800 nM; EC50 (NCI-H1975; [12]): 1100 nM; EC50 (NCI-H358): 700 nM; EC50 (SW480; [13]): 2300 nM; EC50 (T47D; Alamar Blue): 570 nM; EC50 (U-373 MG; Hexosaminidase assay (*)): 2800 nM
